Here are results for 25 compounds from US5750754A, “Heterocyclic compounds” (Zeneca Limited, priority 1993, dated 1998).

SMILES strings stand for the structures. Where a name gives a salt, the structure may show the parent alone. Read-outs that look alike come from different tables or passages of the source.

For assay [1], the target named is T1, purified human platelet fibrinogen receptor (GPIIb/IIIa) (Homo sapiens, UniProt P05106+P08514).
T1 construct: is isolated from human platelet lysates; from tissue
T1 sequence (P08514 32-887 limits assumed): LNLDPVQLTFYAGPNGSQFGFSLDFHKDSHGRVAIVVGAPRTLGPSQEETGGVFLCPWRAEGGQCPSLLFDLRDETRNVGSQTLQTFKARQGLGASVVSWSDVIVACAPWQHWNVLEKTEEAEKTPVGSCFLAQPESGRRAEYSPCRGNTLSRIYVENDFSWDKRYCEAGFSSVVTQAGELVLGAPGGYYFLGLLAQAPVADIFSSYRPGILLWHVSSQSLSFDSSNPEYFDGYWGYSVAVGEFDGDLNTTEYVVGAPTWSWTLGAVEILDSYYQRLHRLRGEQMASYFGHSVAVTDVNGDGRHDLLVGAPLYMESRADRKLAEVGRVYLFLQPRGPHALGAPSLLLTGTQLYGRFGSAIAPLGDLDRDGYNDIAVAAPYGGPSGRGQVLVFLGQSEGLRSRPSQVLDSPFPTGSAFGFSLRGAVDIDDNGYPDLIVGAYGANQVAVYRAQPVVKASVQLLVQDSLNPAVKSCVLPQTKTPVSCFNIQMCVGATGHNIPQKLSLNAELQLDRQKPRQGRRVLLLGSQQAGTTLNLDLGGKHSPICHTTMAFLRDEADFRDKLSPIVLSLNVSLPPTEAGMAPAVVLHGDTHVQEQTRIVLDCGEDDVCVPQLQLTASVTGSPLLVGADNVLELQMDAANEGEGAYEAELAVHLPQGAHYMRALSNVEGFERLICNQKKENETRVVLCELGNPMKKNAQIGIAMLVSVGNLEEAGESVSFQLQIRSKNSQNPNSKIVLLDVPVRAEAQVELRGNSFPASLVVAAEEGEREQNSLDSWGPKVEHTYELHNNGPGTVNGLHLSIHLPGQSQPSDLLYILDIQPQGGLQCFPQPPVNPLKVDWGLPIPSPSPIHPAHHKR
T1 sequence (P08514 891-1039 limits assumed): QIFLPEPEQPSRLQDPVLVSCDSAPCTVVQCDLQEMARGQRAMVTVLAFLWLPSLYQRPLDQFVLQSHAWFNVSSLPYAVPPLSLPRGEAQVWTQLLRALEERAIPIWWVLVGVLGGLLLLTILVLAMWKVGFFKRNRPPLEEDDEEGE
T1 sequence (P05106 27-788): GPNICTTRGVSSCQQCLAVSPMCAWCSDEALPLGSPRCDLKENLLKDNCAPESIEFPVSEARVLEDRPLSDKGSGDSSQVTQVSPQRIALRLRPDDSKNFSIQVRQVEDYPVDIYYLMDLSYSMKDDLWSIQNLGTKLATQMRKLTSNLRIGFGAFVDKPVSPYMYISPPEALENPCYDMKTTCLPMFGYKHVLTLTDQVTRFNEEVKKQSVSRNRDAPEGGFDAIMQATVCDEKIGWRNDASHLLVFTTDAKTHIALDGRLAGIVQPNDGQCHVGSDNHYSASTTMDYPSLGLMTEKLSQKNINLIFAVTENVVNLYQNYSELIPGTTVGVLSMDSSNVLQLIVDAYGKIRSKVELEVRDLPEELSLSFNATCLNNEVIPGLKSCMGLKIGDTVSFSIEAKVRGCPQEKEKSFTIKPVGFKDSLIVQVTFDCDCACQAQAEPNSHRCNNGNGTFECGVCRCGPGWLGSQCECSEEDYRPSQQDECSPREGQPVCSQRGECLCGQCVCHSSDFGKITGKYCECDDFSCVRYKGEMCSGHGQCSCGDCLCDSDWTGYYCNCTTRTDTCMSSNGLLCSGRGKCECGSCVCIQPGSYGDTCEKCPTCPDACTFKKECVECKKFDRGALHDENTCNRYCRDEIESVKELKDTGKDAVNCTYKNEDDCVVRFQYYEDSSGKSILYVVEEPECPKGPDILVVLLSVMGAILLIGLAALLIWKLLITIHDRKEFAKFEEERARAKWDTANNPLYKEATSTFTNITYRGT
Put plainly: Test (b): GPIIb/IIIa ELISA, inhibition of biotinylated fibrinogen binding. The conditions noted are these: purified human platelet GPIIb/IIIa, ELISA. On the procedure: (i) Preparation of human platelet lysates.
Platelet rich plasma (PRP) is harvested by centrifugation (1000 rpm, 15 mins) of whole blood anticoaoulated with acid citrate dextrose (trisodium citrate 85 mM, citric acid 70 mM, d-glucose 110 mM) 1 part to 6 parts blood. Prostacyclin (PGI2, 1 μM) is added to the PRP before centrifugation (2400 pm, 15 mins) and the resulting pellet is resuspended in modified Tyrodes' solution (NaCl 130 mM, KCl 26 mM, NaHCO3 12 mM, NaH2 PO4 0.5 mM, MgCl2 1 mM, CaCl2 20 mM, Glucose 12 mM, HEPES 5 mM) containing bovine serum albumin 3.5 g/L, PGI2 1 μM and hirudin 0.5 U/ml. The platelet suspension is centrifuged (2400 rpm, 15 mins) and the resultant pellet resuspended in 500 μl of lysis buffer (octyl glucoside 50 mM, HEPES 10 mM, NaCl 150 mM, CaCl2 1 mM, MgCl2 1 mM, PMSF 1 mM, NEM 10 mM, leupeptin 0.1 mM), agitated at 4° C. for 15 minutes then centrifuged at 24000 rpm, 15 mins. The supernatant is stored at 4° C. and the pellet re-suspended in 500 μl of lysis buffer. The centrifugation process is repeated a further 3 tlimes, the pooled supernatants being stored at -70° C.
(ii) Receptor purification.
GP Ilb/Ila is isolated from human platelet lysates using a 2 ml peptide (KYGRGDS) coupled CNBr activated Sepharose affinity column. A 1.5 ml volume of platelet lysate is placed on the column and allowed to stand overnight at 4° C. Buffer (30 mls, octyl gluicoside 25 mM, HEPES 10 mM, NaCl 150 mM, CaCl2 1 mM, MgCl2 1 mM, PMSF 1 mM, NEM 10 mM, leupeptin 0.1 mM) is passed through the column and 2 ml fractions are collected throughout. GPIIb/IIIa is eluted with 12 mls of buffer containing HHLGGAKQAGDV (2 mg/ml, pH 7.5), the column is washed using 4 mls buffer and the remaining GPIIb/IIIa eluted using 12 mls buffer containing GRGDSPG (1 mg/ml pH 7.5). The column is finally washed using 20 mls of buffer and can be used for up to three such preparations. Fractions containing FGPIIb/IIIa are identified using gel electrophoresis and immunoblotting, pooled and stored at -70° C.
96 well microtitre plates are coated with 100 μl purified human platelet fibrinogen receptor (GPIIb/IIIa) diluted in coating buffer (Tris-HCl 20 mM, NaCl 150 mM, CaCl2 1 mM, pH 7.4) and left overnight at 4° C. The plates are washed using washing buffer (Tris-HCl 50 mM, NaCl 100 mM, CaCl2 2 mM, pH 7.4) and non-specific binding, blocked by the addition of 200 μl 2% BSA (2 hours, 30° C.). The plates are washed prior to incubation (2 hours, 30° C.) with 100 μl biotinylated fibrinogen ([…]) containing either vehicle or test compound. The plates are washed, incubated with streptavidin (5 μg/ml, 1 hour, ambient temperature), then washed again before the addition of 100 μl biotinylated horse radish peroxidase (0.1 μg/ml, 1 hour, ambient temperature). The plates are then washed and equal volumes of peroxidase substrate (3, 5, tetramethyl benzidine 0.4 g/l) and H2 O2 (0.02%) are mixed together immediately before addition of 150 μl to each well. Colour is allowed to develop for 10-15 mins before optical densities are read at 650 nm.
The concentration of compound required to cause 50% inhibition of biotinylated fibrinogen binding, is calculated and expressed as a pIC50 (-log(IC50)).
A general note: ELISA stands for enzyme-linked immunosorbent assay.

For assay [2], the target named is T2, human, citrated, platelet-rich plasma (Homo sapiens, UniProt P05106+P08514).
T2 construct: aggregating human, citrated, platelet-rich plasma; endogenous in cells; host or cells: human platelets in citrated platelet-rich plasma
T2 sequence (P08514 32-887 limits assumed): as the sequence (P08514 32-887 limits assumed) above
T2 sequence (P08514 891-1039 limits assumed): as the sequence (P08514 891-1039 limits assumed) above
T2 sequence (P05106 27-788): as the sequence (P05106 27-788) above
Put plainly: Test (a): inhibition of ADP stimulated platelet aggregation (Born). Format: cell-based. The conditions noted are these: ADP induced aggregation of human platelet-rich plasma. The text has this: (i) aggregating human, citrated, platelet-rich plasma by addition of adenosine diphosphate so as to generate a dose-response curve;
(ii) generating a dose-response curve for ADP stimulated platelet aggregation in the presence of increasing amounts of a test compound (generally in the range 10-^5 M to 10-^10 M); and
(iii) calculating a pA2 value indicating potency of platelet aggregation inhibition for the test compound, averaged over several concentrations, from the calculated 50% response value for ADP aggregation in the presence and absence of the test compound.

The mark [3] stands for this setting: read-out: Test (b): pIC50 (-log(IC50)), 50% inhibition of biotinylated fibrinogen binding to GPIIb/IIIa (converted).
Setting [4] is: read-out: Test (a): pA2 value indicating potency of platelet aggregation inhibition (converted).

For `CCCc1cc(N2CCN(c3ccncc3)CC2)ccc1OCCCC(=O)OCC` [Example 207, Ethyl 4-[2-n-propyl-4-[4-(4-pyridyl)piperazin-1-yl]phenoxy]butyrate], the IC50 in assay [1] (setting [3]) was 1000 nM. For the same compound, the Kb in assay [2] (setting [4]) was 316 nM.
With `CCCCS(=O)(=O)N[C@@H](Cc1ccc(OCCCN(C)c2ccncc2)cc1)C(=O)O` [Example 96], the IC50 in assay [1] (setting [3]) was 3.98 nM. Moreover, the Kb in assay [2] (setting [4]) is 79.4 nM.
In the case of `O=C(CN1CCN(c2ccncc2)CC1)c1ccc2oc(C(=O)O)cc2c1` [Example 26, 5-[2-[4-(4-Pyridyl)piperazin-1-yl]acetyl]benzofuran-2-carboxylic acid], the IC50 in assay [1] (setting [3]) was 631 nM. Also, the Kb in assay [2] (setting [4]) is 1580 nM.
Turning to `O=C(O)c1ccc(C(=O)CN2CCN(c3ccncc3)CC2)cc1` [Example 132, Sodium 4-[2-[4-(4-pyridyl)piperazin-1-yl]acetyl]benzoate], the IC50 in assay [1] (setting [3]) is 31600 nM. Also, the Kb in assay [2] (setting [4]) is 63100 nM.
For `CN(C)c1ccncc1CCCOc1ccc(OCCCC(=O)O)cc1` [Example 224, 4-[4-[3-(4-dimethylaminopyrid-3-yl)propyloxy]phenoxy]butyric acid], the IC50 in assay [1] (setting [3]) was 501 nM. Further, the Kb in assay [2] (setting [4]) was 31600 nM.
On the same counts, the results for `Cc1ccc(S(=O)(=O)Nc2ccc(C(=O)CN3CCN(c4ccncc4)CC3)cc2)cc1` [Example 19, N-[4-[2-[4-(4-Pyridyl)piperazin-1-yl]acetyl]phenyl-4-methylphenyl]-sulphonamide] are 2000 nM and 2510 nM.
As for `COC(=O)CCc1ccc(OCC2CCN(c3ccncc3)CC2)cc1` [Example 161, Methyl 3-[4-[1-(4-pyridyl)piperidin-4-yl]methoxyphenyl]propionate], the IC50 in assay [1] (setting [3]) was 50100 nM. The Kb in assay [2] (setting [4]) was 12600 nM.
On the same counts, the results for `O=C(O)C1CCCN(C(=O)c2ccc(N3CCN(c4ccncc4)CC3)cc2)C1` (centres unmarked) [Example 235, 4-[(4-Pyridyl)piperazin-1-yl]benzoylnipecotic acid] are 200 nM and 6310 nM.
For the compound `COC(=O)CCNC(=O)CCCCN1CCN(c2ccncc2)CC1` [Example 197, Methyl 3-[5-[4-(4-pyridyl)piperazine-1-yl]petanoyl]aminopropionate], in assay [1] (setting [3]), the IC50 was 15800 nM. The Kb in assay [2] (setting [4]) is 63100 nM.
As to `CCCCS(=O)(=O)N[C@@H](Cc1ccc(OC2CCN(c3ccncc3)CC2)cc1)C(=O)OC` [Example 37, Methyl 2-S-(n-butylsulphonylamino)-3-[4-[1-(4-pyridyl)piperidin-4-yl]oxyphenyl]propionate], in assay [1] (setting [3]), the IC50 was 200 nM. In addition, the Kb in assay [2] (setting [4]) was 2510 nM.
With `COC(=O)COc1ccc(C(=O)CC2CCN(c3ccncc3)CC2)cc1` [Example 173, Methyl 4-[2-[1-(4-pyridyl)piperidin-4-yl]acetyl]phenoxyacetate], the IC50 in assay [1] (setting [3]) is 200 nM. Besides, in assay [2] (setting [4]), the Kb was 1260 nM.
On to `O=C(O)C1CCN(C(=O)CN2CCN(c3ccncc3)CC2)CC1` [Example 28, 1-[2-[4-(4-Pyridyl)piperazin-1-yl]acetyl]piperidin-4-carboxylic acid], for which the IC50 in assay [1] (setting [3]) is 2000 nM. Further, the Kb in assay [2] (setting [4]) was 20000 nM.
In the case of `COC(=O)COc1ccc(C(=O)C(C)N2CCN(c3ccncc3)CC2)cc1` (racemic) [Example 16, (RS) Methyl 4-[2-[4-(4-pyridyl)piperazin-1-yl]-2-methylacetyl]phenoxyacetate], the IC50 in assay [1] (Test (b): pIC50 (-log(IC50)), 50% inhibition of biotinylated fibrinogen binding to GPIIb/IIIa) was 200 nM. The Kb in assay [2] (Test (a): pA2 value indicating potency of platelet aggregation inhibition) is 158 nM.
`O=C(O)COc1ccc(OCCC2CCN(c3ccncc3)CC2)cc1` [Example 160, 4-[2-[1-(4-Pyridyl)piperidin-4-yl]ethoxy]phenoxyacetic acid]: the IC50 in assay [1] (setting [3]) was 15.8 nM. Besides, in assay [2] (setting [4]), the Kb is 794 nM.
As for `C=CC(COc1ccc(N2CCN(c3ccncc3)CC2)cc1)CC(=O)O` (racemic) [Example 204, RS-4-[4-[4-(4-Pyridyl)piperazin-1-yl]phenoxy]-3-vinylbutyric acid, sodium salt], the IC50 in assay [1] (setting [3]) was 1.26 nM. The Kb in assay [2] (setting [4]) is 79.4 nM.
On to `CCCCC(=O)N[C@@H](Cc1ccc(OCC2CCN(c3ccncc3)CC2)cc1)C(=O)OC` [Example 92, Methyl 2-S-(pentanoylamino)-3-[4-[1-(4-pyridyl)piperidin-4-yl]methoxyphenyl]propionate], for which, in assay [1] (setting [3]), the IC50 was 79.4 nM. Also, the Kb in assay [2] (setting [4]) was 2000 nM.
Take `O=C(O)CCNC(=O)CCCN1CCN(c2ccncc2)CC1` [Example 195, 3-[4-[4-(4-Pyridyl)piperazin-1-yl]butyryl]aminopropionic acid, trifluoroacetate]: in assay [1] (setting [3]), the IC50 is 158 nM. The Kb in assay [2] (setting [4]) is 2510 nM.
As to `CCCCS(=O)(=O)N[C@H](Cc1ccc(OCC2CCN(c3ccncc3)CC2)cc1)C(=O)O` [Example 101], the IC50 in assay [1] (setting [3]) was 31.6 nM. Besides, the Kb in assay [2] (setting [4]) was 501 nM.
Take `COC(=O)CCc1ccc(C(=O)CN2CCN(c3ccncc3)CC2)cc1` [Example 11, Methyl 3-[4-[2-[4-(4-pyridyl)piperazin-1-yl]acetyl]phenyl]propionate]: the IC50 in assay [1] (setting [3]) is 39800 nM. In addition, in assay [2] (setting [4]), the Kb was 2000 nM.
With `COC(=O)COc1ccc(C(=O)CN2CCN(c3ccnc(C)c3)CC2)cc1` [Example 151, Methyl 4-[2-[4-(2-methylpyrid-4-yl)piperazin-1-yl]acetyl]phenoxyacetate], the IC50 in assay [1] (setting [3]) was 3980 nM. In addition, the Kb in assay [2] (setting [4]) was 631 nM.
Take `COc1cc(OCC(=O)O)ccc1C(=O)CN1CCN(c2ccncc2)CC1` [Example 128, 4-[2-[4-(4-Pyridyl)piperazin-1-yl]acetyl]-3-methoxy-phenoxyacetic acid, dihydrochloride]: in assay [1] (setting [3]), the IC50 is 501 nM. Also, the Kb in assay [2] (setting [4]) is 158 nM.
On the same counts, the results for `COC(=O)C(CCOc1ccc(N2CCN(c3ccncc3)CC2)cc1)NC(=O)OC(C)(C)C` (racemic) [Example 211, RS Methyl 2-t-butoxycarbonylamino-4-[4-[4-(4-pyridyl)piperazine-1-yl]phenoxy]butyrat] are 158 nM and 1580 nM.
As for `COC(=O)CSc1ccc(C(=O)CN2CCN(c3ccncc3)CC2)cc1` [Example 9, Methyl 4-[2-[4-(4-pyridyl)piperazin-1-yl]acetyl]phenylthioacetate], the IC50 in assay [1] (setting [3]) was 50100 nM. In addition, the Kb in assay [2] (setting [4]) was 12600 nM.
As for `O=C(O)CCNC(=O)c1ccc(N2CCN(c3ccncc3)CC2)cc1` [Example 57, 3-[4-[4-(4-Pyridyl)piperazin-1-yl]]benzamidopropionic acid], the IC50 in assay [1] (setting [3]) was 25.1 nM. Besides, the Kb in assay [2] (setting [4]) was 25.1 nM.
As to `O=C(O)C1CCCC(Oc2ccc(N3CCN(c4ccncc4)CC3)cc2)C1` (centres unmarked) [Example 237, 3-[4-[4-(Pyridyl)piperazin-1-yl]phenoxy]cyclohexane carboxylic acid], the IC50 in assay [1] (setting [3]) was 31.6 nM. Further, in assay [2] (setting [4]), the Kb is 794 nM.
